From the supplement of paper PMC10307832

What was measured:
Dabrafenib + Dasatinib = compound: CC(C)(C)c1nc(-c2cccc(NS(=O)(=O)c3c(F)cccc3F)c2F)c(-c2ccnc(N)n2)s1 [Dabrafenib] + Cc1nc(Nc2ncc(C(=O)Nc3c(C)cccc3Cl)s2)cc(N2CCN(CCO)CC2)n1 [Dasatinib] (partner 0.075 µM); assay: relative viability (nuclei count vs DMSO), 5 days (fraction); higher = more cells survive
Outline: (§1)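 Relative viability was taken as the ratio of nuclei in treated wells to nuclei in vehicle wells. Lung cancer cell lines in 1536-well plates received compounds by pin tool one day after seeding, either one drug alone or a fixed anchor-drug dose plus five library-drug doses (not always all listed) in √10 steps. Nuclei were counted on 4× images after 5 days of treatment, and values are medians of duplicate plates.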

Dabrafenib + Luminespib = compound: CC(C)(C)c1nc(-c2cccc(NS(=O)(=O)c3c(F)cccc3F)c2F)c(-c2ccnc(N)n2)s1 [Dabrafenib] + CCNC(=O)c1noc(-c2cc(C(C)C)c(O)cc2O)c1-c1ccc(CN2CCOCC2)cc1 [Luminespib] (partner 0.01 µM); assay: as above
Outline: as §1

| Cell Line | relative viability (Dabrafenib + Dasatinib; first compound 0.003 µM) | relative viability (Dabrafenib + Dasatinib; first compound 0.009487 µM) | relative viability (Dabrafenib + Dasatinib; first compound 0.03 µM) | relative viability (Dabrafenib + Dasatinib; first compound 0.09487 µM) | relative viability (Dabrafenib + Dasatinib; first compound 0.3 µM) | relative viability (Dabrafenib + Luminespib; first compound 0.003 µM) | relative viability (Dabrafenib + Luminespib; first compound 0.009487 µM) | relative viability (Dabrafenib + Luminespib; first compound 0.03 µM) | relative viability (Dabrafenib + Luminespib; first compound 0.09487 µM) | relative viability (Dabrafenib + Luminespib; first compound 0.3 µM) |
| --- | --- | --- | --- | --- | --- | --- | --- | --- | --- | --- |
| 201T | 0.606 | 0.541 | 0.57 | 0.497 | 0.54 | 1.08 | 1.1 | 0.967 | 0.983 | 1.06 |
| A-427 | – | 0.77 | 0.594 | 0.51 | 0.627 | – | 1 | 0.772 | 0.744 | 1.14 |
| ABC-1 | 0.64 | 0.531 | – | 0.58 | 0.799 | 0.67 | 0.637 | – | 0.449 | 0.875 |
| BEN | – | 0.334 | – | 0.356 | 0.327 | – | 0.549 | – | 0.344 | 0.332 |
| CAL-12T | 0.493 | 0.434 | 0.476 | 0.325 | 0.42 | 0.362 | 0.517 | 0.408 | 0.445 | 0.32 |
| COR-L23 | 0.448 | 0.441 | 0.555 | 0.455 | 0.425 | 0.648 | 0.76 | 0.544 | 0.603 | 0.771 |
| COR-L 105 | 0.316 | 0.39 | 0.366 | 0.373 | 0.368 | 0.852 | 0.936 | 0.916 | 0.949 | 0.977 |
| ChaGo-K-1 | 0.477 | 0.487 | 0.56 | 0.586 | 0.559 | 0.57 | 0.647 | 0.517 | 0.529 | 0.47 |
| EKVX | – | 0.585 | 0.522 | 0.533 | 0.628 | 0.996 | 1.03 | 0.852 | 0.819 | 0.897 |
| EMC-BAC-2 | 0.327 | 0.319 | 0.317 | 0.246 | 0.295 | 1.16 | 1.23 | 1 | 1.13 | 1.28 |
| EPLC-272H | 0.281 | 0.443 | 0.399 | 0.344 | 0.33 | 0.156 | 0.233 | 0.467 | 0.272 | 0.546 |
| H3255 | 0.285 | 0.425 | 0.341 | 0.421 | 0.377 | 0.699 | 0.961 | 0.908 | 0.96 | 0.871 |
| HARA | 0.242 | 0.346 | – | 0.294 | 0.264 | 0.83 | 0.818 | – | 0.621 | 0.726 |
| HCC-15 | 0.597 | 0.665 | 0.775 | 0.651 | 0.754 | 0.379 | 0.634 | 0.285 | 0.0381 | 0.52 |
| HCC-44 | – | – | – | – | – | 1.12 | 1.01 | 1.17 | 0.98 | 0.861 |
| HCC-78 | – | 0.492 | 0.483 | 0.251 | 0.408 | – | – | – | – | – |
| HCC-366 | 0.197 | 0.692 | 0.68 | 0.627 | 0.584 | – | – | – | – | – |
| HCC-827 | 0.44 | 0.384 | 0.287 | – | 0.382 | 0.387 | 0.986 | 0.308 | – | 0.518 |
| HOP-62 | 0.509 | 0.738 | 0.588 | 0.603 | 0.539 | 0.936 | 0.878 | 0.977 | 0.795 | 0.872 |
